From patent US11549123B2, “Plant EPSP synthases and methods of use” (PIONEER HI-BRED INTERNATIONAL, INC., priority 2015, dated 2023)
Where “and” joins values, the source holds several entries; their conditions need not be identical. Equal entries are not always repeated.

Experiments:
[1] = test system: EPSPS with TIPS mutations (T103I and P107S, as in GA21); details: Funke et al. 2009; Yu et al. 2015; cited from earlier work
[2] = target: T1, Zea mays (maize) EPSPS, native, SEQ ID NO:1 (Table 10: SEQ ID NO:2) (Zea mays, UniProt O24566); test: EPSPS substrate saturation kinetics (PEP varied, glyphosate inhibition), native maize; format: biochemical
T1 sequence (O24566 with tags, fused parts or gaps): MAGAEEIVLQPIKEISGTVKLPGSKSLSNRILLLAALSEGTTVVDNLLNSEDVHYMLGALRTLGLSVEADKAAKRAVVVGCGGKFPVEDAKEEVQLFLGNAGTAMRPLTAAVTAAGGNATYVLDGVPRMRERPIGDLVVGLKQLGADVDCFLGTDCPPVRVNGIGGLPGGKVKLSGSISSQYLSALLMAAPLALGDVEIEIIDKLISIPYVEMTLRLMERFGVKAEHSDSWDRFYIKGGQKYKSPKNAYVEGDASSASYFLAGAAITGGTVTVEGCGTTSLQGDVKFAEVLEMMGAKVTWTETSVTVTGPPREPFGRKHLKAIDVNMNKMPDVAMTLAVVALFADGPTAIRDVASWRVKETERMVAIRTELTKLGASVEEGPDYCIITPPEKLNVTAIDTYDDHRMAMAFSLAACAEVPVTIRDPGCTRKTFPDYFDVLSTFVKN
Text: The amino acid sequence of mature Zea mays EPSP synthase (EPSPS) was obtained from GenBank entry CAA44974.1 (NCBI GI No. 1524383; presented herein as SEQ ID NO:2). A nucleotide sequence was created to add an N-terminal methionine and to optimize codon usage for expression in E. coli. The synthetic gene was supplied by a commercial vendor. The gene was cloned into an expression vector that provides a T7 promoter driving expression of the protein. The vector was modified to change a 6×N-terminal histidine tag to a 10×tag. The resulting coding region of the vector yields an expressed protein with the amino acid sequence shown in Table 1 (represented by SEQ ID NO:1). The coding region is preceded by an N-terminal extension represented by SEQ ID NO:3.
Whether protein production was done in BL21(DE3) or with the Tuner AroA knockout, the vector was electroporated into cells and transformants were selected for growth on LB agar containing 100 ug carbennicillin/ml. Cells were grown in Magic Medium, in which induction occurs when the medium becomes depleted of glucose. After 4 hours of growth at 37° C., cells were transferred to 30° C. and grown another 16 hrs. Pelleted cells were lysed with BPER (Pierce) protein extraction reagent containing 0.2 mg/ml lysozyme, 1 mM dithiothreitol, protease inhibitor cocktail (Sigma, bacterial cocktail) and endonuclease. Insoluble cellular debris was removed by centrifugation. EPSPS protein was purified from the soluble protein solution by affinity chromatography on the nickel form of nitrilotriacetic acid (Ni-NTA) resin (Qiagen). Protein concentration was measured by absorbance at 280 nm using an extinction coefficient of 0.676 OD/mg/ml, provided by Vector NTI.
Shikimate-3-phosphate (S3P) was prepared from cultures of Klebsiella pneumonia aroA-(ATCC 25597). Cells from a 500 ml culture grown in 2×YT were used to inoculate 6 L of minimal medium augmented with 55 uM tyrosine, 60 uM phenylalanine, 25 uM tryptophan, 0.1 uM 4-aminobenzoate and 0.1 uM 4-hydroxybenzoate (Weiss et al., 1953. J Amer Chem Soc 75:5572-5576). Accumulation of S3P was monitored by anion exchange HPLC. After about 4 days shaking at 37 C, the concentration reached ˜1 mM. S3P was purified from the culture supernatant by anion exchange chromatography in ammonium bicarbonate at pH 7.3, with gradient elution up to 0.7 M. S3P was cleanly separated from phosphate, which eluted earlier.
EPSPS activity was determined by quantifying the phosphate generated from the EPSPS reaction. Release of inorganic phosphate was coupled to reaction with 2-amino-6-mercapto-7-methylpurine ribonucleoside, catalyzed by purine-nucleoside phosphorylase (M R Webb, Proc. Natl. Acad. Sci. 89:4884-4887, 1992). The absorbance change that occurs was monitored at 360 nm, where the extinction is 11,200 M^−1 cm^−1, with a Spectramax plate reader (Molecular Devices). To determine kinetic parameters, the varied substrate was present at seven concentrations (the eighth being the blank, containing no substrate) ranging from 4 to 400 uM and the unvaried substrate present at saturation. […] Reactions were monitored with a Spectramax plate reader. […]

[3] = target: Zea mays EPSPS variant 4N (Zea mays, UniProt O24566, A3N); test: EPSPS reaction rate with or without 10 uM glyphosate, 4N; format: biochemical; details: pH 7; read-out: Reaction rate with 10 μM glyph, % no glyph; note: 50 µM PEP and S3P
Chain of Zea mays EPSPS variant 4N (O24566 entry or part of it A3N): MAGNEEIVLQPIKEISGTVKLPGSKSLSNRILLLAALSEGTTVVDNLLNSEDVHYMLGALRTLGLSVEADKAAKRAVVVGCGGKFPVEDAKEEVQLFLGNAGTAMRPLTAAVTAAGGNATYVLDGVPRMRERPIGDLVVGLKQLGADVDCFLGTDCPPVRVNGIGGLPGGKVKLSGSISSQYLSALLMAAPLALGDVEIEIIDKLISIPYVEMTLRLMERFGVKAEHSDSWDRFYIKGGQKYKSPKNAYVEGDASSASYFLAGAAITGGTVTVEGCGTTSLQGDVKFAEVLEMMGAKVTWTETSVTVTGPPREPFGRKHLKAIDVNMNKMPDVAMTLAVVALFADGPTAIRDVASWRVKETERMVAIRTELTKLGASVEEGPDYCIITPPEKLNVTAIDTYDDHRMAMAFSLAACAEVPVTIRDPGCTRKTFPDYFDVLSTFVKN

[4] = target: Bacterial EPSPS (CP4) (Agrobacterium sp., UniProt Q9R4E4); test: Substrate saturation kinetic analysis with glyphosate, bacterial EPSPS (CP4)
Chain of Bacterial EPSPS (CP4) (Q9R4E4 whole entry): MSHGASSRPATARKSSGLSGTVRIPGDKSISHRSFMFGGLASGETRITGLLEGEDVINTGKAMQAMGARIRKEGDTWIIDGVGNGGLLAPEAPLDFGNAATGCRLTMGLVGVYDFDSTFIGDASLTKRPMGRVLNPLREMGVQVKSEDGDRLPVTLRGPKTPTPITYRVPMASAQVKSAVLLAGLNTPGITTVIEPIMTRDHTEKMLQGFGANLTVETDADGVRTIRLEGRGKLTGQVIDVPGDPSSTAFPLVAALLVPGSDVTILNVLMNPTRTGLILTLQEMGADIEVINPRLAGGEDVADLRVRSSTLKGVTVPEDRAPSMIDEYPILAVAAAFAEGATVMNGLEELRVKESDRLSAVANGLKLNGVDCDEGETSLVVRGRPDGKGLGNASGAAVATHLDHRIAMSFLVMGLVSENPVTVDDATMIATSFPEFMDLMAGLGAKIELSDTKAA
Text: There are several practical considerations for accurately estimating (kcat/KM)*KI with the rapid method. […] If inhibition is too little, v0-vi will be small, and the error in the multiplier vi×v0/(v0-vi) will be large. […] High substrate concentration obscures sensitivity to the inhibitor and reduces stringency for capturing improvements in KM.

[5] = target: T2, Zea mays EPSPS variant Zm-H6 (868-H6) with V87T (H6-V87T) (Zea mays, UniProt O24566, A1R/A3W/A415G/A71Q/D401G/E301S/E390G/G101A/I207L/K83R/L97C/T278A/T360S/T440Q/V437R/V86T); test: Substrate saturation kinetic analysis with glyphosate, H6-V87T; format: biochemical
T2 construct: 868-H6 plus V87T; E. coli BL21(DE3), Ni-NTA purified
T2 sequence (O24566 with tags, fused parts or gaps A1R/A3W/A71Q/K83R/V86T/L97C/G101A/I207L/T278A/E301S/T360S/E390G/D401G/A415G/V437R/T440Q): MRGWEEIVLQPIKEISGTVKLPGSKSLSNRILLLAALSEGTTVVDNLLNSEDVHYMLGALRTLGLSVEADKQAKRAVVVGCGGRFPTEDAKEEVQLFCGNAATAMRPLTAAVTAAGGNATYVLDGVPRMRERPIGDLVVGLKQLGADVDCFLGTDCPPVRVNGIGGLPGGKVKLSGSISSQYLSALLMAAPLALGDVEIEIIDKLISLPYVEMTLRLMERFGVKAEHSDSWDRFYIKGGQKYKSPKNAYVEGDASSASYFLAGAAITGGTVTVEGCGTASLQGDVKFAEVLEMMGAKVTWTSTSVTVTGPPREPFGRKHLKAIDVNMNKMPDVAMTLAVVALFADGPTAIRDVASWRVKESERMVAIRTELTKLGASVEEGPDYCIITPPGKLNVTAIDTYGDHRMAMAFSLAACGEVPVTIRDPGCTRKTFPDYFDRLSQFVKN

| SMILES | kcat relative to native kcat [1] | kcat ([2]; PEP varied, S3P saturating, pH 7) | kcat ([2]; Table 3, unit not given) | Km ([2]; read-out: KM (PEP), Table 3, unit inferred) | activity at 10 µM [3] | Ki [4] | (kcat/KM)*KI ([4]; substrate saturation, Bacterial EPSPS / CP4) | Ki [5] | (kcat/KM)*KI ([5]; substrate saturation, H6-V87T) | Ki [2] | (kcat/KM)*KI ([2]; PEP as substrate, glyphosate as inhibitor) |
| --- | --- | --- | --- | --- | --- | --- | --- | --- | --- | --- | --- |
| C=C(OP(=O)(O)O)C(=O)O [PEP, phosphoenolpyruvate] | ~5% | 1464 min⁻¹ | 1464 | 15.7 µM | – | – | – | – | – | – | – |
| O=C(O)CNCP(=O)(O)O [glyphosate, N-phosphonomethylglycine] | – | – | – | – | 7.56% | 1410 µM | 108900 | 348 µM | 3280 | 0.13 µM | 11.8 and 12 |
